We go through one compound from paper PMC4166525 (Organic letters, 2013).

The test deals with T1, EgtB (Mycolicibacterium smegmatis, UniProt A0R5N0).
T1 sequence (A0R5N0 1-428): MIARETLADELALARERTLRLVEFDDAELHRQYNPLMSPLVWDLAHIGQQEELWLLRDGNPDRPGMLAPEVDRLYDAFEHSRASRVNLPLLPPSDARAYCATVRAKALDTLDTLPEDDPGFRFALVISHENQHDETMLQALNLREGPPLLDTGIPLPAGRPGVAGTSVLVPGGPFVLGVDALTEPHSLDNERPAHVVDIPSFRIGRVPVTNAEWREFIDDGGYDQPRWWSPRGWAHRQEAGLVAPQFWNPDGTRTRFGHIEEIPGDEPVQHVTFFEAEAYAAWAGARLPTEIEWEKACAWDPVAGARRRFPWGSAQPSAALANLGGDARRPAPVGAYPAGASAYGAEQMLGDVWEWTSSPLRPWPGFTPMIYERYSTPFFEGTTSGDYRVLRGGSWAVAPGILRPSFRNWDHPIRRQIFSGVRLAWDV
Nature of the test: 1H-NMR assay of product […]. It counts as biochemical. Conditions: co-substrate γ-Glu-Cys.

`C[N+](C)(C)[C@@H](Cc1cnc[nH]1)C(=O)[O-]` [compound 2, hercynine]: the “1H-NMR assay of product 3” value is reported as “Native EgtB reaction in ergothioneine biosynthesis”.
